Data from US20240391950A1, “PEPTIDE CROSSLINKING AGENT AND CROSSLINKED PEPTIDE WHICH IS CROSSLINKED USING SAID CROSSLINKING AGENT” (Kagoshima University, priority 2020, published 2024).
One block for each molecule: values may come before it. Starred links: 1 amine or outer side, 2 acyl side, 3 side chain; linkers in the order of their positions; H or OH if unused. Positions of bridges follow the written chain, without caps; N, C: chain ends. Residues, ends and D or L forms follow the SMILES beside them. X4 = C#CCON=C(C)C([*:1])[*:2]

Experiments:
α-chymotrypsin = molecular target: T1, α-chymotrypsin (Bos taurus, UniProt P00766); assay: Resistance to α-chymotrypsin digestion followed by reverse-phase HPLC; format: in vitro ADME, bovine; conditions: for change of HPLC peak after addition of α-chymotrypsin: α-chymotrypsin 1/10 weight ratio, 37° C.; for resistance to protease (FIG. 10): α-chymotrypsin
T1 construct: purchased MP Biomedicals; host or cells: bovine pancreas
Procedure: For evaluation of stability of a peptide by crosslinking reaction, resistivity of α-chymotrypsin (derived from bovine pancreas, manufactured by MP Biomedicals) to protease decomposition was evaluated with oxytocin crosslinked by 2,2-dichloroacetophenone. Crosslinking of oxytocin by 2,2-dichloroacetophenone was performed in the same manner with replacement of 1.1-dichloroacetone in Example 11 by 2,2-dichloroacetophenone, and an objective product was taken by reverse-phase HPLC. Specifically, 10 mg (10 μmol) of oxytocin acetate was dissolved in 3 mL of a 0.1 M HEPES hydrochloric acid buffer (pH 8.0), the solution was mixed with 2 mL of a 0.1 M HEPES hydrochloric acid buffer (pH 8.0) containing 57.4 mg (200 μmol) of TCEP-HCl, and the mixture was stirred for 1 hour. Next, 8.3 mg (44 μmol) of 2,2-dichloroacetophenone dissolved in 0.44 mL of acetonitrile was added and mixed, and the mixture was stirred at room temperature for 1 hour. The resulting sample was applied to an InertSustain C18 column (5 μm, 14×250 mm, manufactured by GL Sciences Inc.) (flow rate 5 mL/min) connected to LC-Forte (manufactured by YMC). The elution was performed at a linear gradient from 4% to 70% (containing 0.1% formic acid). An objective product was taken, and freeze-dried after removal of acetonitrile at a negative pressure.
Evaluation was made with oxytocin-OX and an oxytocin SH reduced form (oxytocin-RD) shown by the following formula A3 used as comparison subjects. In other words, an oxytocin solution obtained by dissolution in a 0.1 M phosphate buffer (pH 7.0) at 0.5 mg/mL was adopted as oxytocin-OX, and a substance obtained after a lapse of 30 minutes from addition of an oxytocin solution obtained by dissolution in a 0.1 M phosphate buffer (pH 7.0) containing 0.5 mg/mL TCEP, at 0.5 mg/mL, was adopted as oxytocin-RD. To 200 μL of each of these solutions was 10 μL ( 1/10 on weight ratio to oxytocin) of 1 mg/mL α-chymotrypsin, and the resultant was subjected to incubation at 37° C. and analysis by reverse-phase HPLC. In the case of blank, a phosphate buffer was added instead of α-chymotrypsin.
A substance obtained after a lapse of 30 minutes from dissolution of 0.5 mg/mL oxytocin-DP purified, in a 0.1 M phosphate buffer (pH 7.0) containing 0.5 mg/mL TCEP, was adopted as a sample, and similarly α-chymotrypsin was added and analysis by reverse-phase HPLC was made.

human IgG1 = human IgG1 (Homo sapiens, UniProt P01857); assay: SPR (BIAcore T200) measurement of binding affinity of crosslinked cyclic peptide to immobilized IgG
Procedure: The affinity analysis was performed by the following method. First, a CM5 sensor chip was installed on BIAcoreT200 (GE healthcare), and 0.4 M 1-ethyl-3-(3-dimethylaminopropyl)carbodiimide (EDC) and a 0.1 M sulfo-N-hydroxysuccinimide (sulfo-NHS) solution mixed in equivalent amounts were injected to the sensor chip at a flow rate of […], to thereby activate the sensor chip. Thereafter, IgG was immobilized onto the sensor chip under a condition of a pH of 5.5 (10 mM Na acetate). An HBS-EP buffer (10 mM HEPES, 150 mM NaCl, 0.005% Tween 20, 3 mM EDTA, pH 7.4) was used in measurement, and 15.625, 31.2, 62.5, 125, 250, and 500 nM of peptides were each injected at a flow rate of […] for 180 seconds, to thereby monitor binding reaction. When dissociation reaction was measured, only the buffer was injected for 600 seconds. The interaction parameter was analyzed with BIAevaluation T100 software.
IgG-binding peptide derivatives compared and evaluated are illustrated in FIG. 1.

human serum-derived IgG = assay: Dynamic binding capacity (DBC) measurement and alkali resistance evaluation of peptide-immobilized column; conditions: for Dynamic binding capacity: 10% breakthrough
Procedure: Five mL of 1 mM hydrochloric acid was sent to an NHS-activated prepacked column having a volume of 1 mL, and an isopropanol solution in the column was removed. Next, a 10.0 mg/mL peptide solution (dissolved in 100 μL of DMSO) was diluted with a coupling solution (20 mM carbonate buffer, 50 mM sodium chloride, pH 8.3) by 10-fold, 1 mL of the dilution liquid was sent, and immobilization was performed at room temperature for 4 hours. Thereafter, unreacted NHS was blocked by 5 mL of 1 M Tris (pH 8.0) at room temperature for 1 hour. Thereafter, washing with 5 mL of an aqueous 0.1 N NaOH solution was made. Finally, 10 mL of a PBS solution (20 mM phosphate buffer, 150 mM sodium chloride, pH 7.4) was sent, and used in chromatography evaluation.
A column where the amount of immobilization of a peptide was 1 mg was produced by the same method as described above. The column produced was equilibrated with PBS, and 1 mg/mL human serum-derived IgG (manufactured by Sigma-Aldrich Co. LLC) dissolved in PBS was sent at a flow rate of 1 mL/min (retention time 1 min). DBC was indicated as one determined from the amount of a protein added at the time of point where 10% of the absorbance at 280 nm of the sample added was leaked.
Next, 5 mL of an aqueous 0.1 N sodium hydroxide solution was sent to the 1-mL column where 1 mg of the peptide was immobilized. Thereafter, washing with PBS was performed. This cycle was repeated 30 times for the 1,1-dichloroacetone-crosslinked cyclic peptide, and was repeated 10 times for the 1,1-dichloropinacolin-crosslinked cyclic peptide. DBC measurement was performed at a flow rate of 1 mL/min at the 1st to 5th and 10th times of the cycles, and further performed at the 20th and 30th times of the cycles with respect to the 1,1-dichloroacetone-crosslinked cyclic peptide, and thus alkali resistance was evaluated. The variation in DBC was determined based on the measurement results under the assumption that DBC immediately after column production was 100% according to Table 2.
Five mL of a 0.1 M sodium hydroxide solution was sent to the produced 1-mL column where the amount of immobilization of a peptide was 1 mg, and thereafter washing with 5 mL of PBS was performed. These operations were defined as one cycle and treatment of washing with aqueous NaOH solution/washing with PBS was performed 1 to 30 times, and thereafter DBC measurement was performed at a flow rate of 1 mL/min at the intended number of times (1, 2, 3, 4, 5, 10, 20, 30 times).

human IgG1 (human) [1] = assay: SPR, BIAcore T200, IgG immobilised on CM5 chip
[2] = molecular target: human serum-derived IgG (manufactured by Sigma-Aldrich Co. LLC); assay: peptide-immobilised column, human serum IgG, 10% breakthrough
human IgG1 (human) [3] = assay: SPR, BIAcore T200, IgG immobilised on CM5 chip, peptide as analyte
human IgG1 (human) [4] = assay: SPR, same affinity measurement as in Example 4
[5] = 0.1 M phosphate buffer pH 7.0 containing 0.5 mg/mL TCEP
[6] = in the presence of reducing agent TCEP
[7] = number of washing times with 0.1 N NaOH: 1

Chain of human IgG1 (P01857 1-328 limits assumed): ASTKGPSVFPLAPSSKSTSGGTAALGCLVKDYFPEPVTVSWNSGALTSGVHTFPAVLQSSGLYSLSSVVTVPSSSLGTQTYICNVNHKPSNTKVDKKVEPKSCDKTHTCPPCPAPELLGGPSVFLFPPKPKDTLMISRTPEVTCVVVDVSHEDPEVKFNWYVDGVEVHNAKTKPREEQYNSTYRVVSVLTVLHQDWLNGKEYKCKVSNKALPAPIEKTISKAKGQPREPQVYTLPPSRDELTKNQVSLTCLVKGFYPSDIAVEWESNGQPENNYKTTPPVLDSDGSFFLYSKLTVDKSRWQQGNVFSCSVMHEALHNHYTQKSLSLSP

- resistance to protease (FIG. 10) (α-chymotrypsin; [6]): extremely low
Molecule: CCC(C)C(NC(=O)C(Cc1ccc(O)cc1)NC(=O)C(N)CS)C(=O)NC(CCC(N)=O)C(=O)NC(CC(N)=O)C(=O)NC(CS)C(=O)N1CCCC1C(=O)NC(CC(C)C)C(=O)NCC(N)=O (stereo not drawn) [oxytocin-RD]
- change of HPLC peak after addition of α-chymotrypsin (α-chymotrypsin; [5]): any peak disappeared after only 10 minutes

- change of HPLC peak after addition of α-chymotrypsin (α-chymotrypsin; 0.1 M phosphate buffer pH 7.0, no TCEP, 15 minutes to 2 hours): no change of any peak was observed
- resistance to protease (FIG. 10) (α-chymotrypsin; no TCEP): high protease resistance
Molecule: CCC(C)C1NC(=O)C(Cc2ccc(O)cc2)NC(=O)C(N)CSSCC(C(=O)N2CCCC2C(=O)NC(CC(C)C)C(=O)NCC(N)=O)NC(=O)C(CC(N)=O)NC(=O)C(CCC(N)=O)NC1=O (stereo not drawn) [oxytocin-OX, Cys-Tyr-Ile-Gln-Asn-Cys-Pro-Leu-Gly-NH2]

- change of HPLC peak after addition of α-chymotrypsin (α-chymotrypsin; [5]): no decrease was observed
- resistance to protease (FIG. 10) (α-chymotrypsin; [6]): high resistance
Molecule: CCC(C)C1NC(=O)C(Cc2ccc(O)cc2)NC(=O)C(N)CS/C(=C/c2ccccc2)SCC(C(=O)N2CCCC2C(=O)NC(CC(C)C)C(=O)NCC(N)=O)NC(=O)C(CC(N)=O)NC(=O)C(CCC(N)=O)NC1=O (stereo not drawn) [oxytocin-DP-RDH]

- change of HPLC peak after addition of α-chymotrypsin (α-chymotrypsin; [5]): no decrease was observed
- resistance to protease (FIG. 10) (α-chymotrypsin; [6]): high resistance
Molecule: CCC(C)C1NC(=O)C(Cc2ccc(O)cc2)NC(=O)C(N)CSC(C(=O)c2ccccc2)SCC(C(=O)N2CCCC2C(=O)NC(CC(C)C)C(=O)NCC(N)=O)NC(=O)C(CC(N)=O)NC(=O)C(CCC(N)=O)NC1=O (stereo not drawn) [oxytocin-DP]

- reduction of affinity as compared with the original peptide (human IgG1; Kd relative to original disulfide IgG-binding peptide): about 42 fold
- Kd (human IgG1; SPR, human IgG1): 334 nM
Molecule: C#CCON=C(C)C1SC[C@H](NC(=O)[C@H](CC(=O)O)NC(=O)[C@@H]2CCCN2C(=O)CNC(=O)[C@H](CO)NC(=O)CNC(=O)CNC(=O)[C@H](CO)NC(=O)CN)C(=O)N[C@@H](C)C(=O)N[C@@H](Cc2ccc(O)cc2)C(=O)N[C@@H](Cc2c[nH]cn2)C(=O)N[C@@H](CCCNC(=N)N)C(=O)NCC(=O)N[C@@H](CCC(=O)O)C(=O)N[C@@H](CC(C)C)C(=O)N[C@@H](C(C)C)C(=O)N[C@@H](Cc2c[nH]c3ccccc23)C(=O)N[C@H](C(=O)N[C@H](C(=O)N[C@@H](Cc2ccccc2)C(=O)N[C@@H](Cc2c[nH]cn2)C(N)=O)[C@@H](C)O)CS1 (stereo partly drawn) (H-GSGGSGPDCAYHRGELVWCTFH-NH2; linker 9-19 via X4; C-terminus assumed)

- kd (human IgG1; SPR, IgG immobilized on CM5 chip, HBS-EP pH 7.4): 0.019
- ka (human IgG1; SPR, IgG immobilized on CM5 chip, HBS-EP pH 7.4, in M-1 s-1 (unit assumed)): 2.37E+06
- change in amount of binding of the antibody to the column by alkali washing (FIG. 2) (human serum-derived IgG; 0.1 M NaOH washing/PBS washing, 1 to 30 cycles): reduced by alkali washing
- value of DBC, by itself, of peptide-immobilized column (human serum-derived IgG; before repeated alkali washing, 1 mL/min): 17.24 mg/mL
- initial value of DBC of peptide column (human serum-derived IgG; initial value, 1 mg peptide on 1-mL column, 1 mL/min): 17.24 mg/mL-column
- Variation (%) in dynamic binding capacity (human serum-derived IgG; [7]): 100.0%
- Variation (%) in maximum binding capacity (human serum-derived IgG; [7]): 100.0%
- Maximum binding capacity (human serum-derived IgG; number of washing times with 0.1 N NaOH: 1, 1 mg peptide on 1-mL column): 12.37 mg
- Dynamic binding capacity (human serum-derived IgG; number of washing times with 0.1 N NaOH: 1, 1 mL/min): 17.24 mg/mL
- Variation (%) in maximum binding capacity (human serum-derived IgG; number of washing times with 0.1 N NaOH: 5): 49.2%
- Maximum binding capacity (human serum-derived IgG; number of washing times with 0.1 N NaOH: 5, 1 mg peptide on 1-mL column): 6.09 mg
- Dynamic binding capacity (human serum-derived IgG; number of washing times with 0.1 N NaOH: 5, 1 mL/min): 8.74 mg/mL
- Variation (%) in dynamic binding capacity (human serum-derived IgG; number of washing times with 0.1 N NaOH: 5, listed as IgG-BP-LGS): 50.7%
- Variation (%) in dynamic binding capacity (human serum-derived IgG; number of washing times with 0.1 N NaOH: 5, listed as original IgG-binding peptide-immobilized column having a disulfide bond): ≤ 50%
Molecule: CC(C)C[C@@H]1NC(=O)[C@H](CCC(=O)O)NC(=O)CNC(=O)[C@H](CCCNC(=N)N)NC(=O)[C@H](Cc2c[nH]cn2)NC(=O)[C@H](Cc2ccc(O)cc2)NC(=O)[C@H](C)NC(=O)[C@@H](NC(=O)[C@H](CC(=O)O)NC(=O)[C@@H]2CCCN2C(=O)CNC(=O)[C@H](CO)NC(=O)CNC(=O)CNC(=O)[C@H](CO)NC(=O)CN)CSSC[C@@H](C(=O)N[C@H](C(=O)N[C@@H](Cc2ccccc2)C(=O)N[C@@H](Cc2c[nH]cn2)C(=O)O)[C@@H](C)O)NC(=O)[C@H](Cc2c[nH]c3ccccc23)NC(=O)[C@H](C(C)C)NC1=O [IgG-BP-LongGS Original] (H-GSGGSGPDCAYHRGELVWCTFH-OH; disulfide 9-19; N-terminus and C-terminus assumed)

- fold reduction of affinity against the original peptide (human IgG1 (human) [1]): 500 fold
- initial value of DBC [2]: 2.3 mg/mL-column
- Kd (human IgG1 (human) [3]): 4900 nM
B1: 1,3-dichloroacetone-crosslinked cyclic peptide of IgG-BP-LongGS (peptide)
peptide: GSGGSGPDCAYHRGELVWCTFH
modifications: the thiol groups of the two Cys residues crosslinked with 1,3-dichloroacetone in place of the disulfide bond

- Kd (human IgG1 (human) [4]): 334 nM
- fold reduction of affinity against the original peptide (human IgG1 (human) [4]): 42 fold
B2: alkyne functional group-introduced, crosslinked and cyclized peptide (1,1-dichloroacetone-crosslinked IgG-BP-LongGS reacted with O-2-Propynylhydroxylamine) (peptide)
peptide: GSGGSGPDCAYHRGELVWCTFH
modifications: not fully specified; the two Cys thiols crosslinked with 1,1-dichloroacetone; the crosslink reacted with O-2-Propynylhydroxylamine hydrochloride to introduce an alkyne group

- Kd (human IgG1 (human) [3]): 6.4 nM
B3: 2,2-dichloroacetophenone-crosslinked cyclic peptide of IgG-BP-LongGS (peptide)
peptide: GSGGSGPDCAYHRGELVWCTFH
modifications: the thiol groups of the two Cys residues crosslinked with 2,2-dichloroacetophenone in place of the disulfide bond; Fmoc removed
